# Measurements reported in patent US11505581B2, “Antigens and T cell epitopes from cockroach and methods of making and using same” (La Jolla Institute for Allergy and Immunology, priority 2015, dated 2022).
# Test system: PBMC
# Assay: ELISPOT (IFNγ, IL-5, IL-10, IL-17, IL-21) of PBMC expanded 14 days with Bla g extract, then stimulated with peptides or peptide pools
# Assay type: cell-based, human
# Set-up: key to Average Magnitude of Response: spot forming cells (SFC) per 10^6 PBMC; Response Rate per Subject: unit not given here
# Details: non-redundant epitopes; sensitized donors
Sequence,Average Magnitude of Response,Response Rate per Subject
VFIGKFYTEFDMENN,4.0,2.9
VIYVQIRFSVRRFHP,15.1,2.9
VLEKLEAGFAKLAAS (listed as Blattella germanica),65.5,14.3
VLGLPAIKAWVAKRP,48.5,14.3
VNQHKKAIEEDLKHF,4.0,2.9
VPIMNIYSAFEFDPN,18.5,4.3
VQKLQKEVDRLEDEL,3.3,1.4
VVFDTGSSNLWVPSK,4.7,4.3
VVRLQSWQSEMLRMN,6.4,2.9
VYEVAIPDRLTLRVE,3.4,2.9
WCNEEDHLRIISMQM,13.1,7.1
WVCEHRWRQIFNMVG,33.9,4.3
WVPSKKCHLTNIACL,8.4,5.7
YFVAILDYLNHMAKE (listed as Blattella germanica),137.2,15.7
YHYDADENSKQKKWD,3.7,2.9
YLGKQFGLSGKDDWE,22.6,8.6
